In patent US8361964B2, “Growth hormone releasing factor (GRF) analogs and uses thereof” (Theratechnologies Inc., priority 2011, dated 2013):
Values belong to the compound of their own block, whether it stands above or below them. Where a SMILES comes first, the peptide text is derived from it.

Legend:
human GRF receptor = biological target: T1, human GRF receptor (Homo sapiens, UniProt Q02643); assay: Alkaline phosphatase (AP) assay, GHRHr agonist activity; format: cell-based; conditions: BHK cells stably expressing human GRF receptor and alkaline phosphatase reporter gene; 24 hrs stimulation; read-out: EC50 (nM) as assessed by alkaline phosphatase (AP) induction
T1 construct: expressed in transfected cells; host or cells: baby hamster kidney (BHK) cells, stably transfected
T1 sequence (Q02643 23-423): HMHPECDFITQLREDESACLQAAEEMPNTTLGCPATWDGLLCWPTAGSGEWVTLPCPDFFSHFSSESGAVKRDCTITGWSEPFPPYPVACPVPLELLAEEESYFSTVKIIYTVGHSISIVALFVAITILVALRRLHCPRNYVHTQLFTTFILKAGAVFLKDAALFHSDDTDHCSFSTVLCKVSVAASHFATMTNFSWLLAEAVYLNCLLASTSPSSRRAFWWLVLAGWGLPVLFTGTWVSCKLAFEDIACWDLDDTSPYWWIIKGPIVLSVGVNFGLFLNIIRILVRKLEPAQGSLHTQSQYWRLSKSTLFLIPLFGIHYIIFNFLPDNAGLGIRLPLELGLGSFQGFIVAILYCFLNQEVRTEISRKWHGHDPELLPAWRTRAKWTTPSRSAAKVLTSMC
Method: The activity of representative GRF peptides was tested on baby hamster kidney (BHK) cells stably transfected to express the human GRF receptor and an alkaline phosphatase reporter gene. Cells were cultured 24 hours before stimulation, in 96-well plates, at a concentration of 0.5×10^5 cells/well. Before stimulation, cells were washed twice with DPBS and incubated 10-30 min in assay buffer (DMEM without phenol red supplemented with 20 mM HEPES and 1% heat inactivated fetal bovine serum (FBS). The dose response curve of the GRF peptides was done for 24 hrs with concentrations of peptides from 10^−5 M to 10^−11 M. Supernatant was collected and analysis of alkaline phosphatase levels was performed using the Alkaline Phosphatase detection kit from Applied Biosystems.
The in vitro activity of representative GRF analogs was tested on baby hamster kidney (BHK) cells expressing human GHRHr.

Growth Hormone secretion [1] = assay: Growth Hormone secretion in female rats after subcutaneous GRF analog; format: in vivo; conditions: female Sprague-Dawley rats; 10 μg/rat subcutaneous; plasma 0-60 minutes
Excerpt: (§1) Sprague-Dawley rats (female, weighting from 250 to 300 g) were obtained from Charles River Inc. Animals were used according to a protocol of the Animal Care Committee along with the principles of the Guide for the Care and Use of Experimental Animals of the Canadian Council on Animal Care. The animals were maintained on standard laboratory chow under a 12:12 light:dark cycle. They were kept in groups of 4 rats per cage.
The animals were anesthetized with isoflurane 2.5%. A mid-section opening was made in the neck to expose the carotid artery. The carotid artery was canulated with polypropylene tubing (PE-50) to allow blood withdrawal. After surgical preparation, rats received a subcutaneous injection of GRF analog (10 μg/rat dissolved in 20 mM AcONa+5% mannitol at pH 5). For pharmacodynamics studies, blood samples (400 μL) were collected from 4 to 8 animals per group per time point. Blood samples (400 μl) were collected via the carotid catheter at 0, 10, 20, 30, 45 and 60 minutes after drug injection. Blood was placed into microtainer pre-treated with K3EDTA and immediately centrifuged at 13,000 RPM in a desktop centrifuge for 2 minutes. The plasma was collected and placed into a screw cap Eppendorf™ and quick frozen in liquid nitrogen. The samples were then kept at −80° C. until assayed. Determination of GH levels was performed as described below.
(§2) Rat and mouse plasma samples were vortexed carefully and centrifuged at 9,000 RPM for 2 min at 4° C. The dosage of GH levels was performed using the Rat/Mouse Growth Hormone ELISA kit from Millipore (Cat. # EZRMGH-45K). Sample supernatants were first diluted 20-fold with the GH ELISA assay buffer, and 10 μl of this dilution was added to the ELISA plate with 90 μl of GH EIA assay buffer. The remaining of the procedure was performed according to the manufacturer's instructions, and the data obtained were analyzed using GraphPad Prism™ software.
(§3) The GRF analogs described herein were tested for their ability to induce GH release in female mice and rats. […] The data are presented in Tables III (mice) and IV-V (rats).

Growth Hormone secretion [2] = assay: Growth Hormone secretion in female mice after subcutaneous GRF analog; format: in vivo; conditions: female CD-1 mice; 10 μg/mouse subcutaneous; plasma 10 minutes after injection
Excerpt: as §1, with “CD-1 mice” for “Sprague-Dawley rats”, “20” for “250”, “25” for “300”, “mice” for “rats”
At the day of the experiment, mice received a subcutaneous injection of GRF analog (10 μg/mouse dissolved in 20 mM sodium acetate (AcONa)+5% mannitol at pH 5). 10 minutes after injection, the mice were anesthezied with isolufrane. Blood samples (500 μl) were obtained by intra-cardiac puncture. Blood was placed into microtainer pre-treated with K3EDTA and immediately centrifuged at 13,000 RPM in a desktop centrifuge for 2 minutes. The plasma was collected and placed into a screwcap Eppendorf™ tube and quick frozen in liquid nitrogen. The samples were then kept at −80° C. until assayed. Determination of GH levels was performed as described below.
as §2, §3

Compound: H-YSDAIFTDSYRKVLAQLKARQDILARAARAAR-NH2 [SEQ ID NO: 33, YSDAIFTDSYRKVLAQLKARQDILARAARAAR-NH2]
EC50 (human GRF receptor): 0.25 nM
Mean AUC (GH Area Under the curve, GH concentration over time) (Growth Hormone secretion [1]): 12467
Mean Cmax (ng/ml) of Growth Hormone secretion (Growth Hormone secretion [1]): 499.0 ng/mL

Compound: CC/C=C/CC(=O)N[C@@H](Cc1ccc(O)cc1)C(=O)N[C@@H](C)C(=O)N[C@@H](CC(=O)O)C(=O)N[C@@H](C)C(=O)N[C@H](C(=O)N[C@@H](Cc1ccccc1)C(=O)N[C@H](C(=O)N[C@@H](CC(=O)O)C(=O)N[C@@H](CO)C(=O)N[C@@H](Cc1ccc(O)cc1)C(=O)N[C@@H](CCCNC(=N)N)C(=O)N[C@@H](CCCCN)C(=O)N[C@H](C(=O)N[C@@H](CC(C)C)C(=O)N[C@@H](C)C(=O)N[C@@H](CCC(N)=O)C(=O)N[C@@H](CC(C)C)C(=O)N[C@@H](CO)C(=O)N[C@@H](C)C(=O)N[C@@H](CCCNC(=N)N)C(=O)N[C@@H](CCC(N)=O)C(=O)N[C@@H](CC(=O)O)C(=O)N[C@H](C(=O)N[C@@H](CCSC)C(=O)N[C@@H](CO)C(=O)N[C@@H](CCCNC(=N)N)C(N)=O)[C@@H](C)CC)C(C)C)[C@@H](C)O)[C@@H](C)CC [SEQ ID NO: 44, Trans-3-hexenoyl-YADAIFTDSYRKVLAQLSARQDIMSR-NH2] (HELM PEPTIDE1{[CC/C=C/CC(=O)[*:2]].Y.A.D.A.I.F.T.D.S.Y.R.K.V.L.A.Q.L.S.A.R.Q.D.I.M.S.R.[am]}$$$$V2.0)
Mean AUC (GH Area Under the curve, GH concentration over time) (Growth Hormone secretion [1]): 984
Mean Cmax (ng/ml) of Growth Hormone secretion (Growth Hormone secretion [1]): 44.2 ng/mL
GH levels 10 min (Growth Hormone secretion [2]): 15.2 ng/mL

Compound: CC/C=C/CC(=O)N[C@@H](Cc1ccc(O)cc1)C(=O)N[C@@H](C)C(=O)N[C@@H](CC(=O)O)C(=O)N[C@@H](C)C(=O)N[C@H](C(=O)N[C@@H](Cc1ccccc1)C(=O)N[C@H](C(=O)N[C@@H](CC(=O)O)C(=O)N[C@@H](CO)C(=O)N[C@@H](Cc1ccc(O)cc1)C(=O)N[C@@H](CCCNC(=N)N)C(=O)N[C@@H](CCCCN)C(=O)N[C@H](C(=O)N[C@@H](CC(C)C)C(=O)N[C@@H](C)C(=O)N[C@@H](CCC(N)=O)C(=O)N[C@@H](CC(C)C)C(=O)N[C@@H](CO)C(=O)N[C@@H](C)C(=O)N[C@@H](CCCNC(=N)N)C(=O)N[C@@H](CCC(N)=O)C(=O)N[C@@H](CC(=O)O)C(=O)N[C@H](C(=O)N[C@@H](CC(C)C)C(=O)N[C@@H](C)C(=O)N[C@@H](CCCNC(=N)N)C(=O)N[C@@H](C)C(=O)N[C@@H](C)C(=O)N[C@@H](CCCNC(=N)N)C(=O)N[C@@H](C)C(=O)N[C@@H](C)C(=O)N[C@@H](CCCNC(=N)N)C(N)=O)[C@@H](C)CC)C(C)C)[C@@H](C)O)[C@@H](C)CC [SEQ ID NO: 27, Trans-3-hexenoyl-YADAIFTDSYRKVLAQLSARQDILARAARAAR-NH2] (HELM PEPTIDE1{[CC/C=C/CC(=O)[*:2]].Y.A.D.A.I.F.T.D.S.Y.R.K.V.L.A.Q.L.S.A.R.Q.D.I.L.A.R.A.A.R.A.A.R.[am]}$$$$V2.0)
Mean AUC (GH Area Under the curve, GH concentration over time) (Growth Hormone secretion [1]): 8350
Mean Cmax (ng/ml) of Growth Hormone secretion (Growth Hormone secretion [1]): 455.6 ng/mL
GH levels 10 min (Growth Hormone secretion [2]): 323.6 ng/mL

Compound: CC[C@H](C)[C@H](NC(=O)[C@H](C)NC(=O)[C@H](CC(=O)O)NC(=O)[C@@H](C)NC(=O)[C@@H](N)Cc1ccc(O)cc1)C(=O)N[C@@H](Cc1ccccc1)C(=O)N[C@H](C(=O)N[C@@H](CC(=O)O)C(=O)N[C@@H](CO)C(=O)N[C@@H](Cc1ccc(O)cc1)C(=O)N[C@@H](CCCNC(=N)N)C(=O)N[C@@H](CCCCN)C(=O)N[C@H](C(=O)N[C@@H](CC(C)C)C(=O)N[C@@H](C)C(=O)N[C@@H](CCC(N)=O)C(=O)N[C@@H](CC(C)C)C(=O)N[C@@H](CCCCN)C(=O)N[C@@H](C)C(=O)N[C@@H](CCCNC(=N)N)C(=O)N[C@@H](CCC(N)=O)C(=O)N[C@@H](CC(=O)O)C(=O)N[C@@H](CC(C)C)C(=O)N[C@@H](CC(C)C)C(=O)N[C@@H](C)C(=O)N[C@@H](CCCNC(=N)N)C(=O)N[C@@H](C)C(=O)N[C@@H](C)C(=O)N[C@@H](CCCNC(=N)N)C(=O)N[C@@H](C)C(=O)N[C@@H](C)C(=O)N[C@@H](CCCNC(=N)N)C(N)=O)C(C)C)[C@@H](C)O [SEQ ID NO: 30, Y-a-DAIFTDSYRKVLAQLKARQDLLARAARAAR-NH2] (HELM PEPTIDE1{Y.[dA].D.A.I.F.T.D.S.Y.R.K.V.L.A.Q.L.K.A.R.Q.D.L.L.A.R.A.A.R.A.A.R.[am]}$$$$V2.0)
Mean AUC (GH Area Under the curve, GH concentration over time) (Growth Hormone secretion [1]): 12282
Mean Cmax (ng/ml) of Growth Hormone secretion (Growth Hormone secretion [1]): 664.1 ng/mL
GH levels 10 min (Growth Hormone secretion [2]): 493.3 ng/mL

Second part, led by results:

EC50 (human GRF receptor): 0.2 nM
Compound: CC[C@H](C)[C@H](NC(=O)[C@H](C)NC(=O)[C@H](CC(=O)O)NC(=O)CNC(=O)[C@@H](N)Cc1ccc(O)cc1)C(=O)N[C@@H](Cc1ccccc1)C(=O)N[C@H](C(=O)N[C@@H](CC(=O)O)C(=O)N[C@@H](CO)C(=O)N[C@@H](Cc1ccc(O)cc1)C(=O)N[C@@H](CCCNC(=N)N)C(=O)N[C@@H](CCCCN)C(=O)N[C@H](C(=O)N[C@@H](CC(C)C)C(=O)N[C@@H](C)C(=O)N[C@@H](CCC(N)=O)C(=O)N[C@@H](CC(C)C)C(=O)N[C@@H](CCCCN)C(=O)N[C@@H](C)C(=O)N[C@@H](CCCNC(=N)N)C(=O)N[C@@H](CCC(N)=O)C(=O)N[C@@H](CC(=O)O)C(=O)N[C@H](C(=O)N[C@@H](CC(C)C)C(=O)N[C@@H](C)C(=O)N[C@@H](CCCNC(=N)N)C(=O)N[C@@H](C)C(=O)N[C@@H](C)C(=O)N[C@@H](CCCNC(=N)N)C(=O)N[C@@H](C)C(=O)N[C@@H](C)C(=O)N[C@@H](CCCNC(=N)N)C(=O)N[C@@H](CCO)C(N)=O)[C@@H](C)CC)C(C)C)[C@@H](C)O [SEQ ID NO: 36, YGDAIFTDSYRKVLAQLKARQDILARAARAAR-HoSer-NH2] (HELM PEPTIDE1{Y.G.D.A.I.F.T.D.S.Y.R.K.V.L.A.Q.L.K.A.R.Q.D.I.L.A.R.A.A.R.A.A.R.[O=C([C@H](CCO)N[*:1])[*:2]].[am]}$$$$V2.0)
Mean AUC (GH Area Under the curve, GH concentration over time) (Growth Hormone secretion [1]): 6211
Mean Cmax (ng/ml) of Growth Hormone secretion (Growth Hormone secretion [1]): 373.5 ng/mL

EC50 (human GRF receptor): 0.2 nM
Compound: H-YGDAIFTDSYRKVLAQLKARQDILARAARAAR-NH2 [SEQ ID NO: 34, YGDAIFTDSYRKVLAQLKARQDILARAARAAR-NH2]
Mean AUC (GH Area Under the curve, GH concentration over time) (Growth Hormone secretion [1]): 11046
Mean Cmax (ng/ml) of Growth Hormone secretion (Growth Hormone secretion [1]): 539.7 ng/mL
